According to patent US20080153792A1, “Drug Identification and Treatment Method” (priority 2006, published 2008):

Assays:
Type in all cases: in vivo, mouse
[1] = test system: DBA/1 mice, passive collagen-induced arthritis; assay: passive collagen-induced arthritis (anti-type II collagen antibodies); conditions: 40 mg/kg/day oral gavage for 14 days
Source text: The capacity of formula 1 compounds to affect the course of arthritis in a passive collagen induced arthritis model of arthritis was examined essentially as previously described (E. Simelyte et al., Arthritis & Rheumatism, 52(6):1876-1884, 2005; Z. Han et al. Arthritis & Rheumatism 46(3):818-823 2002; H. Miyahara et. Clin. Immunol. Immunopathol., 69(1):69-76 1993). In this protocol, passive collagen-induced arthritis was induced in DBA/1 mice by administering anti-type II collagen antibodies, which induced an immune response against joint tissue in the animals. […] The severity of arthritis was assessed using a semiquantitative clinical scoring system. Groups of 8 animals per group were treated with 17α-ethynylandrost-5-ene-3β,7β,17β-triol at 40 mg/kg/day for 14 days or vehicle for 14 days by oral gavage. The vehicle was 30% cyclodextrin-sulfobutylether in water and the drug solution was vehicle with drug at 20 mg/mL.
The animals were examined by measuring ankle thickness and arthritis score (4-point/paw) with a higher score indicating a more severe arthritis. The experiment was terminated after about 14 days, and histology and gene expression measurements were performed. […] A semi-quantitative scoring system was used to access synovial inflammation, extraarticular inflammation, erosion and proteogylcan loss. […]

db/db C57BL/Ks mice = assay: glucose lowering in diabetic db/db mice
Protocol: Glucose lowering and amelioration of insulin resistance. Glucose lowering effects and amelioration of insulin resistance was assessed in the diabetic db/db mouse model of human diabetes and insulin resistance. In these studies, db/db C57BL/Ks mice of approximately 8 to 10 weeks of age were divided into groups of 10 each and then treated with a vehicle control (no drug) or 17α-ethynylandrost-5-ene-3β,7β,17β-triol by oral gavage. The compound was administered twice a day at 20 mg/kg/day (10 mg/kg dose administered twice per day), 40 mg/kg/day (20 mg/kg dose administered twice per day) or 80 mg/kg/day (40 mg/kg dose administered twice per day) for up to 28 days. Blood glucose levels were monitored twice a week during the dosing period, using a minute amount of blood (nick tail bleeds) to measure the concentration of glucose by glucometer strips. At specific times during the dosing period (day 14 and day 28), an oral glucose tolerance test (OGTT) was also performed by administering a standard oral dose of 1 g/kg glucose (approximately 40 mg in a […]) and then the fluctuation of blood glucose levels was monitored quickly thereafter after at 15, 30, 60 and 120 minutes after the glucose dose. […] Blood glucose approached 380 mg/dL in the vehicle control group and was <230 mg/dL after at least 10 days of dosing in the drug treated group.
A treatment protocol similar to that described in example 15 was performed with db/db mice that were younger than the animals described in example 15. The animals (n=8 to 10 per group) were treated with 17α-ethynylandrost-5-ene-3β,7β,17β-triol or vehicle by oral gavage twice per day at 40 mg/kg/day (20 mg/kg dose given twice per day) and 80 mg/kg/day (40 mg/kg dose given twice per day). At the start of dosing, the animals were 6 weeks of age, before the onset of elevated glucose levels or hyperglycemia. Dosing with vehicle or drug was maintained for 32 days to determine the effect of the treatments on the onset and rate of progression of hyperglycemia in the animals. In the control group, the onset of hyperglycemia was observed after 25 days of dosing and it continued to worsen, i.e., blood glucose levels rose from normal to frank hyperglycemia, through the end of the 32 day dosing period.

[2] = test system: DBA/1Lac/J mice, collagen induced arthritis; assay: collagen induced arthritis (CIA), Foxp3+ cells and clinical score
Protocol: Increase of CD4^+CD25^+ T regulatory cells or their activity in vivo. The compound 17α-ethynylandrost-5-ene-3β,7β,17β-triol was administered to mice essentially as described in a previously described collagen induced arthritis animal model. H. Offner et al., Clin. Immunol., 110:181-190, 2006.
DBA/1Lac/J mice were used for the study. The mice were obtained from Jackson Laboratories (Bar Harbor, Harbor, […].) and housed in accordance with applicable institutional guidelines. Bovine type II collagen (bCll) was used to induce collagen induced arthritis (CIA) by immunizing 8-week-old mice with 200 μg of bCII emulsified 1:1 with CFA containing 200 μg Mycobacterium tuberculosis (100 μL; Difco, Detroit, Mich.). The antigen was injected intradermally at the base of the tail. The animals were monitored for 4-7 weeks to observe the onset and progression of the disease post-immunization. The arthritic severity was evaluated with a grading system for each paw according to the following scale: 0=no redness or swelling; 1=slight swelling in ankle or redness in foot; 2=progressed swelling and inflammation and redness from ankle to mid foot; 3=swelling and inflammation of entire foot; 4=swelling and inflammation of entire foot including toes.
After immunization, the mice were treated with the drug at 40 mg/kg/day in vehicle by oral gavage beginning at the start of observable clinical disease (beginning at about 26-27 days after immunization). The vehicle that was used for the protocol was 30% cyclodextrin-sulfobutylether in water. The cyclodextrin-sulfobutylether was obtained commercially (Captisol™ available at cyclexinc.com). The drug formulation was 20 mg drug/mL in the vehicle.

[3] = 40 mg/kg/day oral gavage from onset of clinical disease, n = 3

`C#C[C@]1(O)CC[C@H]2[C@@H]3[C@@H](O)C=C4C[C@@H](O)CC[C@]4(C)[C@H]3CC[C@@]21C` [17α-ethynylandrost-5-ene-3β,7β,17β-triol] was tested, and the maximum clinical score ([1]; at day 7) was 5.1, the “clinical score at day 14” value ([1]; end of the protocol) was 4.1 and the “peak glycemic excursion in OGTT” value (db/db C57BL/Ks mice; 80 mg/kg b.i.d. for 28 days, 30-min post-oral glucose, vehicle approximately 400 mg/dL) was under 200 mg/dL. The “progression into the hyperglycemic state” value (db/db C57BL/Ks mice; 6 week old male db/db mice, 40 mg/kg) was “completely blocked progression”, the “basal blood glucose hyperglycemic levels” value (db/db C57BL/Ks mice; 8 week old male db/db mice, 40 mg/kg dose group, twice-a-day, apparent after 10 days) was “markedly suppressed” and the blood glucose (db/db C57BL/Ks mice; after at least 10 days of dosing, vehicle approached 380 mg/dL) was under 230 mg/dL. For the same compound, the “levels of glucose by the end of the 32 day dosing period” value (db/db C57BL/Ks mice; db/db mice 6 weeks of age at start, 40 mg/kg/day and 80 mg/kg/day oral, twice per day) was “did not rise above normal levels”, the “decrease in hyperglycemic blood glucose levels” value (db/db C57BL/Ks mice; db/db mice 8 to 10 weeks of age, oral gavage twice a day) was “approximately 40%” and the “glucose intolerance in OGTTs compared to vehicle” value (db/db C57BL/Ks mice; treated db/db animals) was “significant amelioration of glucose intolerance”. For the same compound, the “CD4^+Foxp3^+ cells in whole splenocytes” value [2, 3] was 1.34% ± 0.05, the “Total Foxp3^+ cells in whole splenocytes” value [2, 3] was 2.39% ± 0.16 and the “Foxp3+ CD4^+ cells by cell sorter analysis” value ([2]; 40 mg/kg/day, control animals 1.0%) was 1.4%. For the same compound, the “maximum mean clinical score” value ([2]; at day 34, vehicle about 6.8-8 between days 34-49) was “about 5” and the mean clinical score ([2]; by day 49) was “about 3”.
